In ChEMBL document CHEMBL4145634, “Discovery of Janus Kinase 2 (JAK2) and Histone Deacetylase (HDAC) Dual Inhibitors as a Novel Strategy for the Combinational Treatment of Leukemia and Invasive Fungal Infections” (J Med Chem, 2018):
≈ marks a conversion by molar mass, not a printed value. Calls of active or inactive are those of the source. The rule behind the calls is not given here.

How the values were obtained:
HL-60 [1] = test: Antiproliferative activity against human HL60 cells after 48 hrs by CCK-8 assay; format: functional, cell-based; conditions: HL-60, 48 h
K562 [2] = test: Antiproliferative activity against human K562 cells after 48 hrs by CCK-8 assay; format: functional, cell-based; conditions: K562, 48 h
HEL [3] = test: Antiproliferative activity against human HEL cells after 48 hrs by CCK-8 assay; format: functional, cell-based
HEL [4] = test: Cell cycle arrest in human HEL cells assessed as accumulation at G1 phase at 1 to 5 uM after 48 hrs propidium iodide staining based flow cytometry; format: functional
Candida albicans [5] = test: microbe, parasite or virus in culture; format: functional; conditions: Candida albicans, 0304103, 48 h
Description: Antifungal activity against FLC resistant Candida albicans 0304103 after 48 hrs by checkerboard microdilution method

Candida albicans [6] = test: Antifungal activity against FLC resistant Candida albicans 100 after 48 hrs by checkerboard microdilution method; format: functional; conditions: Candida albicans, 100, 48 h
Candida albicans [7] = test: microbe, parasite or virus in culture; format: functional; conditions: Candida albicans, 0710922, 48 h
Description: Antifungal activity against FLC resistant Candida albicans 0710922 after 48 hrs by checkerboard microdilution method

HL-60 [8] = test: Antiproliferative activity against human HL60 cells after 48 hrs in presence of JAK2 inhibitor CYT-387 by CCK-8 assay; format: functional, cell-based; conditions: HL-60, 48 h
K562 [9] = test: Antiproliferative activity against human K562 cells after 48 hrs in presence of JAK2 inhibitor CYT-387 by CCK-8 assay; format: functional, cell-based; conditions: K562, 48 h
HEL [10] = test: Antiproliferative activity against human HEL cells after 48 hrs in presence of JAK2 inhibitor CYT-387 by CCK-8 assay; format: functional, cell-based
HEL [11] = test: Antitumor activity against human HEL cells xenografted in BALB/C nude mouse assessed as tumor growth inhibition at 10 mg/kg, ip bid treated for 21 consecutive days relative to control; format: functional; conditions: read-out: TGI
Mus musculus [12] = test: Protection against spleen enlargement in SCID mouse xenografted with human HEL cells at 10 mg/kg, ip qd; format: functional, organism-based
HEL [13] = test: Antitumor activity in human HEL cells xenografted in SCID mouse assessed as mouse survival time at 10 mg/kg, ip qd; format: functional
Mus musculus [14] = test: In vivo antifungal activity against FLC resistant Candida albicans 0304103 infected in ICR mouse assessed as mouse survival at 5 mg/kg, ip qd up to 20 days in co-treated with 1 mg/kg, ip qd fluconazol (reference value: 4.5 day); format: functional
Mus musculus [15] = test: In vivo antifungal activity against FLC resistant Candida albicans 0304103 infected in ICR mouse assessed as mouse survival at 5 mg/kg, ip qd up to 20 days (reference value: 4.5 day); format: functional, organism-based
HEL [16] = test: Cell cycle arrest in human HEL cells assessed as accumulation at G1 phase at 1 to 10 uM after 48 hrs propidium iodide staining based flow cytometry; format: functional
Mus musculus [17] = test: Toxicity in BALB/C nude mouse xenografted with human HEL cells at 10 mg/kg, ip bid treated for 21 consecutive days; format: organism-based; conditions: in vivo
Mus musculus [18] = test: Toxicity in BALB/C nude mouse xenografted with human HEL cells assessed as reduction in body weight at 10 mg/kg, ip bid treated for 21 consecutive days; format: organism-based; conditions: in vivo
HEL [19] = test: Antitumor activity in human HEL cells xenografted in SCID mouse assessed as mouse survival at 10 mg/kg, ip qd measured after 10 days; format: functional, organism-based
HEL [20] = test: Antitumor activity against human HEL cells xenografted in BALB/C nude mouse assessed as tumor growth at 10 mg/kg, ip bid treated for 21 consecutive days relative to control; format: functional
Candida albicans [21] = test: Antifungal activity against FLC resistant Candida albicans 0304103 at 1 ug/ml up to 24 hrs by checkerboard microdilution method; format: functional, organism-based
Mus musculus [22] = test: In vivo antifungal activity against FLC resistant Candida albicans 0304103 infected in ICR mouse assessed as mouse survival at 1 mg/kg, ip qd up to 20 days (reference value: 4.5 day); format: functional
[23] = target: Tyrosine-protein kinase JAK2 (Homo sapiens, UniProt O60674); test: Inhibition of JAK2 (unknown origin) using FAM-labeled peptide as substrate preincubated for 10 mins followed by substrate addition and measured after 25 mins in presence of ATP
Chain of Tyrosine-protein kinase JAK2 (O60674 whole entry): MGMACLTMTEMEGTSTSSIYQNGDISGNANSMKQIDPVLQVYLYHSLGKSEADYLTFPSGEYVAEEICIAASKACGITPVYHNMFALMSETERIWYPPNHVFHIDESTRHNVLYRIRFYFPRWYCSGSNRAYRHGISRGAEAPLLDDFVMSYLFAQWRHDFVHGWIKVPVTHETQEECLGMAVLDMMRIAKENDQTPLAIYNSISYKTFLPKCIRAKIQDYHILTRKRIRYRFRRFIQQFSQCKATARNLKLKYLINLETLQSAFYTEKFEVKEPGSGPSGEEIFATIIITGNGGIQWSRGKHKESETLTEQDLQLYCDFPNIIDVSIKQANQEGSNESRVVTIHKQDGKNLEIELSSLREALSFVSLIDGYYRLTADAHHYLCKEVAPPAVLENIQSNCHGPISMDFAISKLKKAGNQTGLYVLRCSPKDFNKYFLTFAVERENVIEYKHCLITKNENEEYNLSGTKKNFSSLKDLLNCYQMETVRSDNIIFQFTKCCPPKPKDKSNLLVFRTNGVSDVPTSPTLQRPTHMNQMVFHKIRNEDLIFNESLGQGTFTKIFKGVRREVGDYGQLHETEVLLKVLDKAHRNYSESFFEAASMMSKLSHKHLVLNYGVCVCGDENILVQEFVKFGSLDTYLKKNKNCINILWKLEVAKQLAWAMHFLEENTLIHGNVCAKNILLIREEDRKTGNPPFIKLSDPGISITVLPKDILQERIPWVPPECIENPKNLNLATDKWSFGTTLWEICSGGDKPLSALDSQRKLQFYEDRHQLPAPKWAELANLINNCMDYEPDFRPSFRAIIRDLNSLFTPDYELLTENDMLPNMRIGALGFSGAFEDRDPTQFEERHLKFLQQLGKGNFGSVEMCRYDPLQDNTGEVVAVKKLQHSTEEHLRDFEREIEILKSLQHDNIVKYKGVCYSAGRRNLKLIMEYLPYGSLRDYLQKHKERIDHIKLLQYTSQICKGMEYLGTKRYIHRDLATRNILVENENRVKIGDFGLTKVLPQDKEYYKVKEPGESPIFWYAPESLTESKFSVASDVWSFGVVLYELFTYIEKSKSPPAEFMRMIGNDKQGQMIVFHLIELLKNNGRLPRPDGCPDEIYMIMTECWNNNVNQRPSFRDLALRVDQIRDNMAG

Histone deacetylase 1 = Histone deacetylase 1 (Homo sapiens, UniProt Q13547); test: Inhibition of full length human recombinant HDAC1 expressed in baculovirus expression system using (Ac-Leu-Gly-Lys(Ac)-AMC as substrate preincubated for 5 mins followed by substrate addition and measured after 30 mins by fluorescence assay
Chain of Histone deacetylase 1 (Q13547 whole entry): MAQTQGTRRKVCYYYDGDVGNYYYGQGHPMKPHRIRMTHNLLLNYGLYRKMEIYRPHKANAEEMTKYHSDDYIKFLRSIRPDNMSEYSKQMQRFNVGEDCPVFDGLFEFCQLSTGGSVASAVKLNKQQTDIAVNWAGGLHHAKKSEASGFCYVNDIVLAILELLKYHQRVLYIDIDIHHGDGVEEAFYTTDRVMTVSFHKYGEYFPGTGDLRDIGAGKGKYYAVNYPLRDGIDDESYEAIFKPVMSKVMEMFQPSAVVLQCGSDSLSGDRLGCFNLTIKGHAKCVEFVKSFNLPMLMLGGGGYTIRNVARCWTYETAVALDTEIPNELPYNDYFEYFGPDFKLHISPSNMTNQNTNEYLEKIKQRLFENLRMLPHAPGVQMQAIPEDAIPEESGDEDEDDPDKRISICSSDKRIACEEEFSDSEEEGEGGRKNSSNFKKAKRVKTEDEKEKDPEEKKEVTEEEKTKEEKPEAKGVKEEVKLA

Candida albicans [24] = test: microbe, parasite or virus in culture; format: functional; conditions: Candida albicans, 0304103, 48 h; remark: listed apart in the source
Description: Antifungal activity against FLC resistant Candida albicans 0304103 assessed as fluconazol MIC50 after 48 hrs by checkerboard microdilution method

Candida albicans [25] = test: microbe, parasite or virus in culture; format: functional; conditions: Candida albicans, 0304103, 48 h; remark: listed apart in the source
Description: Antifungal activity against FLC resistant Candida albicans 0304103 after 48 hrs in presence of fluconazol by checkerboard microdilution method

Candida albicans [26] = test: microbe, parasite or virus in culture; format: functional; conditions: Candida albicans, 100, 48 h
Description: Antifungal activity against FLC resistant Candida albicans 100 assessed as fluconazol MIC50 after 48 hrs by checkerboard microdilution method

Candida albicans [27] = test: Antifungal activity against FLC resistant Candida albicans 100 after 48 hrs in presence of fluconazol by checkerboard microdilution method; format: functional; conditions: Candida albicans, 100, 48 h
Candida albicans [28] = test: microbe, parasite or virus in culture; format: functional; conditions: Candida albicans, 0710922, 48 h; remark: listed apart in the source
Description: Antifungal activity against FLC resistant Candida albicans 0710922 assessed as fluconazol MIC50 after 48 hrs by checkerboard microdilution method

Candida albicans [29] = test: microbe, parasite or virus in culture; format: functional; conditions: Candida albicans, 0710922, 48 h; remark: listed apart in the source
Description: Antifungal activity against FLC resistant Candida albicans 0710922 after 48 hrs in presence of fluconazol by checkerboard microdilution method

Candida albicans [30] = test: Synergistic antifungal activity against FLC resistant Candida albicans 0304103 assessed as FIC index after 48 hrs by checkerboard microdilution method; format: functional
Candida albicans [31] = test: Synergistic antifungal activity against FLC resistant Candida albicans 100 assessed as FIC index after 48 hrs by checkerboard microdilution method; format: functional
Candida albicans [32] = test: Synergistic antifungal activity against FLC resistant Candida albicans 0710922 assessed as FIC index after 48 hrs by checkerboard microdilution method; format: functional
HEL [33] = test: Induction of apoptosis in human HEL cells at 10 uM after 48 hrs by Annexin-V-FITC/propidium iodide staining based flow cytometry relative to control; format: functional

Row | SMILES | IC50 (HL-60 [1]) [µM] | IC50 (K562 [2]) [µM] | IC50 (HEL [3]) [µM] | MIC50 (Candida albicans [5]) [mg/L] | MIC50 (Candida albicans [6]) [mg/L] | MIC50 (Candida albicans [7]) [mg/L] | IC50 (HL-60 [8]) [µM] | IC50 (K562 [9]) [µM] | IC50 (HEL [10]) [µM] | inhibition in vivo at 10 mg/kg (HEL [11]) [%] | Activity (Mus musculus [12]) | Activity (HEL [13]) | MST (Mus musculus [14]) [days] | Activity (Mus musculus [15]) | MIC50 (Candida albicans [24]) [mg/L] | MIC50 (Candida albicans [25]) [mg/L] | MIC50 (Candida albicans [26]) [mg/L] | MIC50 (Candida albicans [27]) [mg/L] | MIC50 (Candida albicans [28]) [mg/L] | MIC50 (Candida albicans [29]) [mg/L] | other results
1 | CN1CCc2c(c3ccccc3n2Cc2ccc(C(=O)NO)cc2)C1 [TUBASTATIN A] | 3.75 to 23.9 | 3.75 to 23.9 | 3.75 to 23.9 | > 64 | > 64 | > 64 | 2.54 to 8.55 | 2.54 to 8.55 | 2.54 to 8.55 | 18.8 | inactive | inactive | 4.5 | inactive | – | – | – | – | – | – | Activity (HEL [4]): Active
2 | O=C(CCCCCCNC(=O)c1cnc(N(c2ccccc2)c2ccccc2)nc1)NO [RICOLINOSTAT] | 3.75 to 23.9 | 3.75 to 23.9 | 3.75 to 23.9 | > 64 | > 64 | > 64 | 2.54 to 8.55 | 2.54 to 8.55 | 2.54 to 8.55 | 14.1 | inactive | inactive | 5 | inactive | – | – | – | – | – | – | Activity (HEL [16]): Active
3 | O=C(CCCCCCC(=O)Nc1ccccc1)NO [VORINOSTAT] | – | 7.7 | – | – | – | – | – | – | – | – | inactive | – | 10 | – | – | – | – | – | – | – | Activity (Mus musculus [17]): Non-Toxic; Activity (Mus musculus [18]): Non-Toxic; Activity (HEL [19]): inactive; T/C (HEL [20]): 87.9%
4 | OC(Cn1cncn1)(Cn1cncn1)c1ccc(F)cc1F [FLUCONAZOLE] | – | – | – | > 64 | > 64 | > 64 | – | – | – | – | – | – | – | – | – | – | – | – | – | – | Activity (Candida albicans [21]): inactive; MST (Mus musculus [22]): 7.5 days
5 | N#CCNC(=O)c1ccc(-c2ccnc(Nc3ccc(N4CCC(C(=O)NO)CC4)cc3)n2)cc1 | > 50 | > 50 | > 50 | > 64 | > 64 | > 64 | – | – | – | – | – | – | – | – | 0.25 (≈ 0.53 µM) | 8 (≈ 17 µM) | 0.5 (≈ 1.06 µM) | 2 | 1 (≈ 2.12 µM) | 64 (≈ 136 µM) | IC50 [23]: 0.004 µM; IC50 (Histone deacetylase 1): 2.7 µM; fractional inhibitory concentration index (FICI) (Candida albicans [30]): 0.13; fractional inhibitory concentration index (FICI) (Candida albicans [31]): 0.039; fractional inhibitory concentration index (FICI) (Candida albicans [32]): 1.02
6 | N#CCNC(=O)c1ccc(-c2ccnc(Nc3ccc(N4CCOCC4)cc3)n2)cc1 [MOMELOTINIB] | 8.3 | 6.5 | 2.3 | > 64 | > 64 | > 64 | – | – | – | 40.2 | inactive | – | 5.5 | – | > 64 | > 64 | > 64 | > 64 | 64 (≈ 154 µM) | 64 (≈ 154 µM) | Activity (HEL [33]): 25.9%; fractional inhibitory concentration index (FICI) (Candida albicans [30]): >2; fractional inhibitory concentration index (FICI) (Candida albicans [31]): >2; fractional inhibitory concentration index (FICI) (Candida albicans [32]): 2; Activity (Mus musculus [17]): Non-Toxic; Activity (Mus musculus [18]): Non-Toxic; Activity (HEL [19]): inactive; T/C (HEL [20]): 68.3%
7 | N#CCNC(=O)c1ccc(-c2ccnc(Nc3ccc(N4CCC(C(=O)Nc5ccc(C(=O)NO)cc5)CC4)cc3)n2)cc1 | > 50 | > 50 | > 50 | > 64 | > 64 | > 64 | – | – | – | – | – | – | – | – | 0.5 (≈ 0.847 µM) | 64 (≈ 108 µM) | 2 (≈ 3.39 µM) | 64 | > 64 | > 64 | IC50 [23]: 0.016 µM; IC50 (Histone deacetylase 1): 24 µM; fractional inhibitory concentration index (FICI) (Candida albicans [30]): 1.01; fractional inhibitory concentration index (FICI) (Candida albicans [31]): 1.03; fractional inhibitory concentration index (FICI) (Candida albicans [32]): >2
8 | Nc1cc(F)ccc1NC(=O)/C=C/c1cnn(C/C=C/c2ccccc2)c1 | 21.7 to 33.6 | 21.7 to 33.6 | 21.7 to 33.6 | > 64 | > 64 | > 64 | 1.64 to 4.19 | 1.64 to 4.19 | 1.64 to 4.19 | 16.4 | inactive | inactive | 5 | inactive | – | – | – | – | – | – | –
